Columns and labels:
[1] = system: sedge, umbrella; test: Test B flooded paddy test; assay type: in vivo, Cyperus difformis; conditions: 250 g ai/ha, Flood, 13 days, 0 to 100 scale (0 no effect, 100 complete control)
In short: (§1)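 Each species was raised to the 2-leaf stage. At treatment, each pot received floodwater 3 cm deep, with the chemical delivered into the water. Greenhouse holding followed for 13 days, then percent control was estimated visually versus untreated pots.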

[2] = system: ryegrass, Italian; test: Test A postemergence; assay type: in vivo, Lolium multiflorum; conditions: postemergence, 10 days; for Ryegrass, Italian plant response rating: 125 g ai/ha, 0 to 100 scale, 0 no effect, 100 complete control; for Plant response rating, Ryegrass, Italian: 500 g ai/ha, visual injury, 0 to 100 scale (0 no effect, 100 complete control)
In short: (§2)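 Weeds and crops in loam–sand blend were sprayed preemergence onto soil or postemergence at 2–10 cm (one- to two-leaf stage). Test chemicals were in a non-phytotoxic solvent with surfactant. After 10 days in the greenhouse, injury was rated visually against untreated controls on a 0 (no effect) to 100 (complete control) scale.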

[3] = system: oat, wild; test: Test A postemergence; assay type: in vivo, Avena fatua; conditions: postemergence, 10 days; for Oat, Wild plant response rating: 125 g ai/ha, 0 to 100 scale, 0 no effect, 100 complete control; for Plant response rating, Oat, Wild: 500 g ai/ha, visual injury, 0 to 100 scale (0 no effect, 100 complete control)
In short: as §2

[4] = system: soybean; test: Test A preemergence; assay type: in vivo, Glycine max; conditions: 0 to 100 scale
In short: as §2

[5] = system: ryegrass, Italian; test: Test A preemergence; assay type: in vivo, Lolium multiflorum; conditions: 0 to 100 scale
In short: as §2

[6] = system: wheat; test: Test A preemergence; assay type: in vivo, Triticum aestivum; conditions: 0 to 100 scale
In short: as §2

[7] = system: barnyardgrass; test: Test A preemergence; assay type: in vivo, Echinochloa crusgalli; conditions: visual injury after 10 days, 0 to 100 scale, 0 is no effect, 100 is complete control
In short: as §2

[8] = system: horseweed; test: Test A postemergence; assay type: in vivo, Erigeron canadensis; conditions: postemergence, 10 days; for Horseweed plant response rating: 125 g ai/ha, 0 to 100 scale, 0 no effect, 100 complete control; for Plant response rating, Horseweed: 500 g ai/ha, visual injury, 0 to 100 scale (0 no effect, 100 complete control)
In short: as §2

[9] = system: kochia; test: Test A preemergence; assay type: in vivo, Bassia scoparia; conditions: 0 to 100 scale
In short: as §2

[10] = system: corn; test: Test A preemergence; assay type: in vivo, Zea mays; conditions: 0 to 100 scale
In short: as §2

[11] = system: corn; test: Test A postemergence; assay type: in vivo, Zea mays; conditions: postemergence, 10 days; for Corn plant response rating: 125 g ai/ha, 0 to 100 scale, 0 no effect, 100 complete control; for Plant response rating, Corn: 500 g ai/ha, visual injury, 0 to 100 scale (0 no effect, 100 complete control)
In short: as §2

[12] = system: foxtail, giant; test: Test A preemergence; assay type: in vivo, Setaria faberi; conditions: 0 to 100 scale
In short: as §2

[13] = system: wheat; test: Test A postemergence; assay type: in vivo, Triticum aestivum; conditions: postemergence, 10 days; for Wheat plant response rating: 125 g ai/ha, 0 to 100 scale, 0 no effect, 100 complete control; for Plant response rating, Wheat: 500 g ai/ha, visual injury, 0 to 100 scale (0 no effect, 100 complete control)
In short: as §2

[14] = system: rice; test: Test B flooded paddy test; assay type: in vivo, Oryza sativa; conditions: 250 g ai/ha, Flood, 13 days, 0 to 100 scale (0 no effect, 100 complete control)
In short: as §1

[15] = system: pigweed, palmer; test: Test A postemergence; assay type: in vivo, Amaranthus palmeri; conditions: postemergence, 10 days; for Pigweed, Palmer plant response rating: 125 g ai/ha, 0 to 100 scale, 0 no effect, 100 complete control; for Plant response rating, Pigweed, Palmer: 500 g ai/ha, visual injury, 0 to 100 scale (0 no effect, 100 complete control)
In short: as §2

[16] = system: blackgrass; test: Test A postemergence; assay type: in vivo, Alopecurus myosuroides; conditions: postemergence, 10 days; for Blackgrass plant response rating: 125 g ai/ha, 0 to 100 scale, 0 no effect, 100 complete control; for Plant response rating, Blackgrass: 500 g ai/ha, visual injury, 0 to 100 scale (0 no effect, 100 complete control)
In short: as §2

[17] = system: barnyardgrass; test: Test A postemergence; assay type: in vivo, Echinochloa crusgalli; conditions: postemergence, 10 days; for Barnyardgrass plant response rating: 125 g ai/ha, 0 to 100 scale, 0 no effect, 100 complete control; for Plant response rating, Barnyardgrass: 500 g ai/ha, visual injury, 0 to 100 scale (0 no effect, 100 complete control)
In short: as §2

[18] = system: ragweed; test: Test A postemergence; assay type: in vivo, Ambrosia artemisiifolia; conditions: postemergence, 10 days; for Ragweed plant response rating: 125 g ai/ha, 0 to 100 scale, 0 no effect, 100 complete control; for Plant response rating, Ragweed: 500 g ai/ha, visual injury, 0 to 100 scale (0 no effect, 100 complete control)
In short: as §2

[19] = system: ducksalad; test: Test B flooded paddy test; assay type: in vivo, Heteranthera limosa; conditions: 250 g ai/ha, Flood, 13 days, 0 to 100 scale (0 no effect, 100 complete control)
In short: as §1

[20] = system: kochia; test: Test A postemergence; assay type: in vivo, Bassia scoparia; conditions: postemergence, 10 days; for Kochia plant response rating: 125 g ai/ha, 0 to 100 scale, 0 no effect, 100 complete control; for Plant response rating, Kochia: 500 g ai/ha, visual injury, 0 to 100 scale (0 no effect, 100 complete control)
In short: as §2

[21] = system: galium; test: Test A postemergence; assay type: in vivo, Galium aparine; conditions: postemergence, 10 days; for Galium plant response rating: 125 g ai/ha, 0 to 100 scale, 0 no effect, 100 complete control; for Plant response rating, Galium: 500 g ai/ha, visual injury, 0 to 100 scale (0 no effect, 100 complete control)
In short: as §2

[22] = system: pigweed, palmer; test: Test A preemergence; assay type: in vivo, Amaranthus palmeri; conditions: 0 to 100 scale
In short: as §2

[23] = system: ragweed; test: Test A preemergence; assay type: in vivo, Ambrosia artemisiifolia; conditions: 0 to 100 scale
In short: as §2

[24] = system: soybean; test: Test A postemergence; assay type: in vivo, Glycine max; conditions: postemergence, 10 days; for Soybean plant response rating: 125 g ai/ha, 0 to 100 scale, 0 no effect, 100 complete control; for Plant response rating, Soybean: 500 g ai/ha, visual injury, 0 to 100 scale (0 no effect, 100 complete control)
In short: as §2

[25] = system: barnyardgrass; test: Test B flooded paddy test; assay type: in vivo, Echinochloa crus-galli; conditions: 250 g ai/ha, Flood, 13 days, 0 to 100 scale (0 no effect, 100 complete control)
In short: as §1

[26] = system: foxtail, giant; test: Test A postemergence; assay type: in vivo, Setaria faberi; conditions: postemergence, 10 days; for Foxtail, Giant plant response rating: 125 g ai/ha, 0 to 100 scale, 0 no effect, 100 complete control; for Plant response rating, Foxtail, Giant: 500 g ai/ha, visual injury, 0 to 100 scale (0 no effect, 100 complete control)
In short: as §2

[27] = system: oat, wild; test: Test A preemergence; assay type: in vivo, Avena fatua; conditions: 0 to 100 scale
In short: as §2

[28] = system: blackgrass; test: Test A preemergence; assay type: in vivo, Alopecurus myosuroides; conditions: 0 to 100 scale
In short: as §2

[29] = 500 g ai/ha, visual injury after 10 days, 0 is no effect, 100 is complete control

CC(C)c1ncn(-c2ccc(OC(F)F)c(C(=O)N3C[C@H](C)Oc4c(Cl)cccc43)c2)n1 [Compound 143]
40: Plant response rating, Corn [10, 29] | Plant response rating, Wheat [13] | Ragweed plant response rating [18] | Plant response rating, Barnyardgrass [25] | Plant response rating, Blackgrass ([28]; 125 g ai/ha)
60: Pigweed, Palmer plant response rating [15] | Plant response rating, Oat, Wild ([27]; 125 g ai/ha)
90: Plant response rating, Ryegrass, Italian [5, 29] | Plant response rating, Wheat ([6]; 125 g ai/ha) | Plant response rating, Barnyardgrass ([7]; 125 g ai/ha) | Corn plant response rating [11] | Plant response rating, Corn [11] | Plant response rating, Blackgrass [16] | Plant response rating, Barnyardgrass [17] | Kochia plant response rating [20] | Plant response rating, Kochia [20] | Plant response rating, Ragweed [23, 29] | Foxtail, Giant plant response rating [26] | Plant response rating, Foxtail, Giant [26] | Plant response rating, Oat, Wild [27, 29]
65: Plant response rating, Ducksalad [19]
80: Plant response rating, Ryegrass, Italian [2] | Plant response rating, Ryegrass, Italian ([5]; 125 g ai/ha) | Plant response rating, Kochia ([9]; 125 g ai/ha) | Plant response rating, Pigweed, Palmer [15] | Blackgrass plant response rating [16]
0: Plant response rating, Rice [14]
50: Ryegrass, Italian plant response rating [2] | Plant response rating, Wheat [6, 29] | Plant response rating, Horseweed [8] | Barnyardgrass plant response rating [17]
10: Oat, Wild plant response rating [3] | Plant response rating, Corn ([10]; 125 g ai/ha)
100: Plant response rating, Soybean ([4]; 125 g ai/ha) | Plant response rating, Soybean [4, 29] | Plant response rating, Barnyardgrass ([7]; 500 g ai/ha) | Plant response rating, Kochia [9, 29] | Plant response rating, Foxtail, Giant ([12]; 125 g ai/ha) | Plant response rating, Foxtail, Giant [12, 29] | Galium plant response rating [21] | Plant response rating, Galium [21] | Plant response rating, Pigweed, Palmer ([22]; 125 g ai/ha) | Plant response rating, Pigweed, Palmer [22, 29] | Soybean plant response rating [24] | Plant response rating, Soybean [24]
70: Plant response rating, Oat, Wild [3] | Plant response rating, Ragweed [18] | Plant response rating, Blackgrass [28, 29]
20: Horseweed plant response rating [8]
98: Plant response rating, Sedge, Umbrella [1]
30: Wheat plant response rating [13] | Plant response rating, Ragweed ([23]; 125 g ai/ha)

Cc1cccc2c1OC(C(F)(F)F)CN2C(=O)c1ccnc(-n2cncn2)c1 (centres unmarked) [Compound 144]
80: Foxtail, Giant plant response rating [26] | Plant response rating, Blackgrass [28, 29]
70: Plant response rating, Corn [11] | Blackgrass plant response rating [16] | Galium plant response rating [21]
50: Ryegrass, Italian plant response rating [2] | Plant response rating, Wheat [6, 29] | Plant response rating, Barnyardgrass ([7]; 125 g ai/ha) | Plant response rating, Corn [10, 29] | Plant response rating, Blackgrass ([28]; 125 g ai/ha)
0: Oat, Wild plant response rating [3] | Plant response rating, Soybean ([4]; 125 g ai/ha) | Horseweed plant response rating [8] | Plant response rating, Horseweed [8] | Plant response rating, Kochia ([9]; 125 g ai/ha) | Plant response rating, Rice [14] | Ragweed plant response rating [18] | Plant response rating, Ragweed [18] | Plant response rating, Ragweed ([23]; 125 g ai/ha) | Plant response rating, Barnyardgrass [25]
20: Wheat plant response rating [13] | Pigweed, Palmer plant response rating [15] | Barnyardgrass plant response rating [17]
65: Plant response rating, Ducksalad [19]
90: Plant response rating, Ryegrass, Italian [2] | Plant response rating, Ryegrass, Italian ([5]; 125 g ai/ha) | Plant response rating, Barnyardgrass ([7]; 500 g ai/ha) | Plant response rating, Blackgrass [16] | Plant response rating, Barnyardgrass [17] | Plant response rating, Foxtail, Giant [26]
100: Plant response rating, Soybean [4, 29] | Plant response rating, Ryegrass, Italian [5, 29] | Plant response rating, Foxtail, Giant ([12]; 125 g ai/ha) | Plant response rating, Foxtail, Giant [12, 29] | Plant response rating, Galium [21] | Plant response rating, Pigweed, Palmer [22, 29] | Soybean plant response rating [24] | Plant response rating, Soybean [24]
30: Plant response rating, Wheat ([6]; 125 g ai/ha) | Plant response rating, Corn ([10]; 125 g ai/ha) | Plant response rating, Ragweed [23, 29] | Plant response rating, Oat, Wild ([27]; 125 g ai/ha)
10: Kochia plant response rating [20] | Plant response rating, Pigweed, Palmer ([22]; 125 g ai/ha)
60: Plant response rating, Sedge, Umbrella [1] | Plant response rating, Kochia [9, 29] | Plant response rating, Wheat [13] | Plant response rating, Kochia [20] | Plant response rating, Oat, Wild [27, 29]
40: Plant response rating, Oat, Wild [3] | Corn plant response rating [11] | Plant response rating, Pigweed, Palmer [15]

Source: patent publication US20260262643A1, “HERBICIDAL BENZOXAZINES” (FMC CORPORATION, priority 2022, published 2026)
